Paper PMC5000474, “Discovery of a Carbazole-Derived Lead Drug for Human African Trypanosomiasis” (Scientific Reports, 2016)
Like-named read-outs stand apart in the source and are kept apart here.

How the values were obtained:
bloodstream T. brucei = assay: Trypanosome proliferation inhibition assay (GI50); type: cell-based, Trypanosoma brucei brucei; details: for Selectivity Index HL GI50/Tbb GI50: ratio between HeLa and T. brucei GI50
Method: T. brucei (brucei or rhodesiense) were seeded at 4 × 10^3 cells/mL in 24-well plates (0.5 or 1 mL of culture per well). […] Then, at least five drug concentrations[26] covering this range was used for subsequent assays. Each concentration was tested in duplicate. […] Cells were counted only if they were motile. […] Final mean GI50 values were calculated based on two independent experiments, each with at least five data points performed in duplicate. T. brucei were seeded at 4 × 10^3 cells/mL and dispensed into wells of a 384-well black plate (Greiner; Frickenhausen, Germany). Wells in two columns per plate were filled with 50 μL of HMI-9 medium using a Multidrop Combi (Thermo Scientific; Waltham, MA) to serve as a background control. Fifty microliters of trypanosome suspension was added to separate columns using a Multidrop Combi. Lastly, an additional 50 μL of cell resuspension was added to only the top row of wells that contained cells (row A, labeled by Greiner), using an Xplorer multichannel pipette (Eppendorf; Hamburg-Eppendorf, Germany) bringing final volumes of cell-containing wells in the top row to 100 μL. […] St. Louis, MO). A microliter of DMSO (25%) or diluted drug was added to wells containing cells of the top row using an Xplorer multichannel pipette. Each concentration was tested in duplicate. Cells and DMSO/drug were mixed and serially diluted 1:2 down the rows of the plate. […] Cells were lysed by addition of 15 μL of SYBR Green I (Invitrogen; Carlsbad, CA) in lysis solution[30] (5X SYBR Green I, 30 mM Tris pH 7.5, 7.5 mM EDTA, 0.012% saponin and 0.12% Triton X-100) to each well. […] Data collected was exported to Excel from Ascent Software (Thermo Scientific). Base-line corrected non-linear regression graphs were generated and GI50 values determined using GraphPad Prism (GraphPad Software; La Jolla, CA). Final mean GI50 values were calculated based on four separate biological replicates.

T. brucei [1] = assay: Thirty-hour treatment of trypanosomes: cell density, kinetoplast/nucleus copy number, DNA content; type: cell-based, Trypanosoma brucei brucei; details: 200 nM
Method: At stated times trypanosome density was determined using a Z2 Coulter Counter (Beckman). […] At the same time-points a 5 mL aliquot (5 × 10^5–1 × 10^7 cells total) was collected and analyzed by flow cytometry as described below. All data reported were obtained from three independent experiments.
T. brucei (between 5 × 10^5 cells to 1 × 10^7 cells) in 5 mL of culture medium were centrifuged (3 min, 3000 × g at room temperature) to pellet cells and washed once with 1 mL of PBS containing 10 mM glucose. Cells were fixed in 1 mL of 70% methanol supplemented by PBS at 4 °C for up to two weeks, centrifuged (3 min, 2000 × g at room temperature), and resuspended at 5 × 10^5 cells/mL in 1X PBS. RNase A and propidium iodide (PI) were added to each sample to final concentrations of 500 μg/mL and 7.5 μM, respectively, and the suspension was protected from light during incubation for 1 h at 37 °C[35]. Samples were placed on ice for 15 min and data was immediately collected on a CyAn ADP Analyzer (Beckman Coulter; Hialeah, FL). During analysis with FlowJo software (FlowJo, LLC; Ashland, OR), trypanosomes were gated from background debris by plotting “events” as forward scatter vs. side scatter (both on the logarithmic scale). Single trypanosomes were gated for cell cycle analysis from cells stuck together (“doublets”) by plotting trypanosome events as PI fluorescence vs. pulse width. Distribution of trypanosomes into groups containing different amounts of chromosomal DNA was performed using Watson-Pragmatic algorithm in FlowJo. DNA distribution values from independent experiments were averaged with error bars generated and graphed in Excel. To compare effects of drug treatment on DNA content of experimental and vehicle control groups, Student’s t-test was performed in Excel to generate p-values.

[2] = Normalized body weight of treated T. brucei-infected mice; type: in vivo; details: oral 2 (20 mg/kg) or 3 (25 mg/kg)
Method: Formulated compounds or vehicle control (0.2% HPMC) were administered by oral gavage starting 24 h after mouse infection with T. brucei[33][34]. Animals were weighed before each compound administration, and dose volume was adjusted based on body weight (10 mL/kg) to deliver accurate doses of test compounds. The treatment was ceased for animals when normalized body weight (NBW) loss exceeded 20%, and resumed after NBW recovery above 90%. […] 1: 30 mg/kg or 40 mg/kg, treatment regimen of “4 days on/2 days off” for a total of 14 doses; 2: 20 mg/kg (days 2–5), 10 mg/kg (day 7), 5 mg/kg (days 8–9), no drug (day 6, days 10–13); 3: 25 mg/kg (days 2–5), 12.5 mg/kg (day 7), 6.25 mg/kg (days 8–10), no drug (day 6, days 11–13). Scheduled euthanasia by CO2 overdose followed by incision to form a bilateral pneumothorax was conducted on mice considered cured 30 days after the end of experimental treatment (see previous section). Mice with parasitemia greater than 2 × 10^8 trypanosomes/mL or NBW losses ≥30% were subjected to unscheduled euthanasia.

HeLa cells = assay: HeLa cell proliferation inhibition assay (GI50); type: cell-based; details: Homo sapiens; HeLa 1 × 10^5 cells/mL, 24 h with compound; read-out: Growth inhibition (GI50) ± SD HeLa
Method: HeLa cells were seeded to 1 × 10^5 cells/mL in 24-well plates (1 mL of culture per well) and incubated drug-free for 24 h at 37 °C, 5% CO2. DMSO or stock inhibitor concentration (5 μL) was added to obtain the specified final concentrations. Cells were incubated for 24 h[28][29] at 37 °C, 5% CO2. Next, cells were trypsinized and cell density was determined with a Neubauer Bright-line hemocytometer as described[9]. GI50 for each compound was calculated by plotting data for the cell counts in Excel as described for T. brucei above. Data were obtained from two independent experiments, four separate biological replicates.

T. b. rhodesiense = assay: Trypanosome proliferation inhibition assay (GI50), T. b. rhodesiense; type: cell-based; details: Trypanosoma brucei, 4 × 10^3 cells/mL, 24-well plates, 48 h, read-out: Growth inhibition (GI50) ± SD T. b. rhodesiense
Method: T. brucei (brucei or rhodesiense) were seeded at 4 × 10^3 cells/mL in 24-well plates (0.5 or 1 mL of culture per well). […] Compounds were initially tested at 10 nM, 100 nM or 1 μM, to define a range where cell density responded to drug concentrations. Then, at least five drug concentrations[26] covering this range was used for subsequent assays. Each concentration was tested in duplicate. Cell density was determined with a Neubauer Bright-Line hemocytometer (Sigma) after 48 h. Cells were counted only if they were motile. […] Final mean GI50 values were calculated based on two independent experiments, each with at least five data points performed in duplicate.

T. brucei [3] = assay: Mouse model of HAT: oral treatment of T. brucei-infected mice; type: in vivo, Trypanosoma brucei brucei; details: for survival of infected mice compared to control untreated animals: administered orally; for reduction of parasitemia: day six, after full oral dose days two to five (2: 20 mg/kg, 3: 25 mg/kg); for increase in average survival: infected mice treated orally, versus vehicle (5 days on average); for cure of T. brucei infection in mice: oral administration
Method: Cultured T. brucei were pelleted and resuspended in cold phosphate buffered saline (PBS) containing 1% glucose at 1 × 10^5 cells/mL. Female Swiss-Webster mice (8–10 weeks old, 20–25 g, n = 4 per group) (Harlan; Indianapolis, IN) were infected intraperitoneally (i.p.) with 10^4 bloodstream trypanosomes in 100 μL of PBS using 26G needles. To avoid damage to T. brucei cells, mechanical stress during administration was minimized by avoiding repeated pulling and pushing movements of cell resuspension through the syringe needle. Starting 48 h post-infection, and every 1–8 days thereafter, parasitemia was monitored by collecting 3 μL of blood from the tail vein of mice. Blood samples were supplemented with 21 μL of RBC Lysis Solution (Qiagen; Valencia, CA) and incubated at room temperature for 15–45 min. prior to observing for parasites using a Neubauer Bright-line hemocytometer. Mice with parasitemia greater than 2 × 10^8 trypanosomes/mL were euthanized. […] To compare animal survival in treatment and vehicle control groups, Student’s t-test was performed in Excel to generate p-values. All animal experiments were conducted with the approval of the Institutional Animal Care and Use Committee (IACUC) at the University of Georgia. All experimental protocols involving animals were carried out in accordance with the approved guidelines of the IACUC at the University of Georgia.
Formulated compounds or vehicle control (0.2% HPMC) were administered by oral gavage starting 24 h after mouse infection with T. brucei. Animals were weighed before each compound administration, and dose volume was adjusted based on body weight (10 mL/kg) to deliver accurate doses of test compounds. The treatment was ceased for animals when normalized body weight (NBW) loss exceeded 20%, and resumed after NBW recovery above 90%. […] 1: 30 mg/kg or 40 mg/kg, treatment regimen of “4 days on/2 days off” for a total of 14 doses; 2: 20 mg/kg (days 2–5), 10 mg/kg (day 7), 5 mg/kg (days 8–9), no drug (day 6, days 10–13); 3: 25 mg/kg (days 2–5), 12.5 mg/kg (day 7), 6.25 mg/kg (days 8–10), no drug (day 6, days 11–13). Scheduled euthanasia by CO2 overdose followed by incision to form a bilateral pneumothorax was conducted on mice considered cured 30 days after the end of experimental treatment (see previous section). Mice with parasitemia greater than 2 × 10^8 trypanosomes/mL or NBW losses ≥30% were subjected to unscheduled euthanasia.

[4] = ref Cleveland BioLabs, unpublished data; cited from earlier work
[5] = Trypanosoma brucei, 48 h, T. brucei 4 × 10^3 cells/mL, 48 h, Fig. 1, read-out: GI50
[6] = Trypanosoma brucei, against T. brucei, read-out: GI50
[7] = Trypanosoma brucei, 48 h, 4 × 10^3 cells/mL, 24-well plates, 48 h, Table 1, read-out: Growth inhibition (GI50) ± SD T. b. brucei

## CCCNCCCn1c2ccc(C(C)=O)cc2c2c3c(ccc21)C(=O)CC3 [CBL0175]
Bloodstream T. brucei; [5]
  GI50: 9.5 ± 1.4 nM

## CCN(CC)CCn1c2ccc(C(C)=O)cc2c2cc(C(C)=O)ccc21 [CBL0014]
Bloodstream T. brucei; [5]
  GI50: 76 ± 20 nM

## CCN(CC)CCCC(C)n1c2ccc3c(c2c2c4c(ccc21)C(=O)CC4)CCC3=O (stereo not shown) [CBL0100Q]
Bloodstream T. brucei; [5]
  GI50: 240 ± 2 nM

## CN(C)CCCn1c2ccccc2c2cnccc21 [CBL0144]
Bloodstream T. brucei; [6]
  GI50: > 10000 nM

## CCN(CC)CCn1c2ccccc2c2cnccc21 [CBL0139]
Bloodstream T. brucei; [6]
  GI50: > 10000 nM

## CC(=O)c1ccc2c(c1)c1cc(C(C)=O)ccc1n2CCCN(C)C [CBL0031]
Bloodstream T. brucei; [5]
  GI50: 260 ± 0.64 nM

## CC(=O)c1ccc2c(c1)c1cc(C(C)=O)ccc1n2CCC1CCCN1C (stereo not shown) [CBL0053]
Bloodstream T. brucei; [5]
  GI50: 58 ± 5.3 nM

## CC[n+]1c(-c2ccccc2)c2cc(N)ccc2c2ccc(N)cc21 [ethidium bromide]
T. brucei [1]; 30 h time-course
  formation of dyskinetoplastic trypanosomes (0K1N): produced dyskinetoplastic trypanosomes
T. brucei [1]; 30 h treatment, flow cytometry
  effect on nuclear DNA content compared to vehicle: little or no effect
T. brucei [1]; T. brucei seeded 1 × 10^5 cells/mL
  increase in cell density during 30 h treatment: 2.5 fold

## CC(C)NCCn1c2ccc3c(c2c2c4c(ccc21)C(=O)CC4)CCC3=O [CBL0197]
Bloodstream T. brucei; [5]
  GI50: 0.95 ± 0.05 nM

## O=C1CCc2c1ccc1c2c2c3c(ccc2n1CCN1CCOCC1)C(=O)CC3 [CBL0207]
Bloodstream T. brucei; [5]
  GI50: 17 ± 0.2 nM

## CC(=O)c1cc2c3cc(C(C)=O)c(O)cc3n(CCCN(C)C)c2cc1O [CBL0174]
Bloodstream T. brucei; [5]
  GI50: 25 ± 1.9 nM

## CC(=O)c1cc2c3c4c(ccc3n(CCCN(C)C)c2cc1O)C(=O)N(C)C4 [CBL0167]
Bloodstream T. brucei; T. brucei 4 × 10^3 cells/mL, 48 h, Fig. 1, read-out: GI50
  GI50: 21 ± 2.9 nM
Bloodstream T. brucei; [5]
  GI50: < 25 nM

## CC(=O)c1cc2c3cc(C(C)=O)c(O)cc3n(CCNC(C)C)c2cc1O [CBL0187]
Bloodstream T. brucei; [5]
  GI50: 33 ± 2.1 nM

## CCN(CC)CCn1c2ccc(C3=NCCN3)cc2c2cc(C3=NCCN3)ccc21 [CBL0030]
Bloodstream T. brucei; [5]
  GI50: 1500 ± 210 nM

## CCN(CC)CCn1c2ccc3c(c2c2c4c(ccc21)C(=O)CC4)CCC3=O [CBL0100]
Bloodstream T. brucei; [5]
  GI50: 0.97 ± 0.08 nM

## CCOC(=O)N1CCC(n2c3ccc(C(C)=O)cc3c3cc(C(C)=O)ccc32)CC1 [CBL0149]
Bloodstream T. brucei; [5]
  GI50: 5300 ± 1500 nM

## CC(=O)c1ccc2c(c1)c1c3c(ccc1n2CCNC(C)C)C(=O)CC3 [CBL0252]
Bloodstream T. brucei; [5]
  GI50: 8.5 ± 0.22 nM

## CC(=O)c1ccc2c(c1)c1c3c(ccc1n2CC[C@@H]1CCCN1C)C(=O)CC3 [CBL0211]
Bloodstream T. brucei; [5]
  GI50: 2.3 ± 0.58 nM

## CC(=O)c1cc2c3c4c(ccc3n(CCCN(C)C)c2cc1O)C(=O)CC4 [Compound 2]
[2]
  weight loss of normal body weight (NBW): exceeding 10%
HeLa cells
  GI50: 580 ± 100 nM
Bloodstream T. brucei; [7]
  GI50: 7.4 ± 0.2 nM
Bloodstream T. brucei; [5]
  GI50: < 10 nM
Bloodstream T. brucei
  Selectivity Index HL GI50/Tbb GI50: 78
T. b. rhodesiense
  GI50: 13 ± 3 nM
T. brucei [3]
  survival of infected mice compared to control untreated animals: increased survival
  reduction of parasitemia: 100 fold
  increase in average survival: 2 fold
  cure of T. brucei infection in mice: failed to cure
[4]
  oral bioavailability: orally bioavailable

## CCN(CC)CCn1c2ccc(C#N)cc2c2cc(C#N)ccc21 [CBL0018]
Bloodstream T. brucei; [5]
  GI50: 250 ± 20 nM

## CON=C1CCc2c1ccc1c2c2c3c(ccc2n1CCN1CCOCC1)C(=NOC)CC3 [CBL0209]
Bloodstream T. brucei; [5]
  GI50: 460 ± 18 nM

## CC(=O)c1ccc2c(c1)c1c3c(ccc1n2CC[C@H]1CCCN1C)C(=O)CC3 [CBL0212]
Bloodstream T. brucei; [5]
  GI50: 8.2 ± 0.23 nM

## CC(=O)c1ccc2c(c1)c1cc(C(C)=O)ccc1n2CCCNC(C)C [CBL0127]
Bloodstream T. brucei; [5]
  GI50: 170 ± 3 nM

## CN(C)CCCn1c2ccc3c(c2c2c4c(ccc21)C(=O)CC4)CCC3=O [CBL0253]
Bloodstream T. brucei; [5]
  GI50: 0.74 ± 0.27 nM

## CCNCCCn1c2ccc3c(c2c2c4c(ccc21)C(=O)CC4)CCC3=O [CBL0198]
Bloodstream T. brucei; [5]
  GI50: 2.8 ± 0.49 nM

## CCCNCCCn1c2ccc3c(c2c2c4c(ccc21)C(=O)CC4)CCC3=O [Compound 3]
[2]
  weight loss of normal body weight (NBW): exceeding 10%
HeLa cells
  GI50: 520 ± 40 nM
Bloodstream T. brucei; [7]
  GI50: 2.2 ± 0.1 nM
Bloodstream T. brucei; [5]
  GI50: < 10 nM
Bloodstream T. brucei
  Selectivity Index HL GI50/Tbb GI50: 236
T. b. rhodesiense
  GI50: 3.6 ± 0.3 nM
T. brucei [3]
  survival of infected mice compared to control untreated animals: increased survival
  reduction of parasitemia: 100 fold
  increase in average survival: 2 fold
  cure of T. brucei infection in mice: failed to cure
[4]
  oral bioavailability: orally bioavailable
